Experimental data as given in patent publication US11478558B2, “Prostate-specific membrane antigen targeted high-affinity agents for endoradiotherapy of prostate cancer” (The Johns Hopkins University, priority 2017, dated 2022).

Experiments:
[1] = system: PSMA(+) PC3 PIP cells; assay: Cell uptake, cell surface binding and internalization in PSMA(+) PC3 PIP cells; format: cell-based, human
[2] = target: PSMA (Homo sapiens (Human), UniProt Q04609); assay: PSMA binding affinity; conditions: for Ki: Table 6, given as range
Chain of PSMA (Q04609 whole entry): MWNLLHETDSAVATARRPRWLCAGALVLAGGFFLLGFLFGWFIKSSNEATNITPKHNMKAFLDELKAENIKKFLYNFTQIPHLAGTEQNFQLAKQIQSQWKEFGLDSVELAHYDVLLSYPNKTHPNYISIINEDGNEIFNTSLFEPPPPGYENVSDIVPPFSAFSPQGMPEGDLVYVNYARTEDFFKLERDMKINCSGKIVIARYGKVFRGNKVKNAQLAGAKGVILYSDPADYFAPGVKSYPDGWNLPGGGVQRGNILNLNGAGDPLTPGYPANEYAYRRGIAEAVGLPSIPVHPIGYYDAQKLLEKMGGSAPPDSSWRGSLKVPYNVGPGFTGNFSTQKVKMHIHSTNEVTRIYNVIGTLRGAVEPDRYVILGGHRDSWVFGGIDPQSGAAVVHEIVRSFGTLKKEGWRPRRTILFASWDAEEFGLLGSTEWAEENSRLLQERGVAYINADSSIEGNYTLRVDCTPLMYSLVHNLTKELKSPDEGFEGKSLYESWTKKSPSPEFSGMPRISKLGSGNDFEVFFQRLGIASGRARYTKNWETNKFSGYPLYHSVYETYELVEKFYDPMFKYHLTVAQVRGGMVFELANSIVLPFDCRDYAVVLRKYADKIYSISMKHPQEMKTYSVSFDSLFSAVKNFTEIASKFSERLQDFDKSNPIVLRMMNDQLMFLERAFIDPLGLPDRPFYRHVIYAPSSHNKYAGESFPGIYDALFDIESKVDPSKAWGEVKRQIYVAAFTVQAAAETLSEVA

[3] = system: PSMA(−) PC3 flu cells; assay: Cell uptake in PSMA(−) PC3 flu cells; format: cell-based, human
[4] = Blood analysis and necropsy after radiotherapy; format: in vivo, NOD/SCID mice
Experimental: (§1) A pilot treatment study using NOD/SCID mice (n=10 per group) bearing PSMA+ PC3 PIP tumors with a single intravenous dose of 111 MBq (3 mCi) of agents ^177Lu-PSMA-617, ^177Lu-1, ^177Lu-3 and ^177Lu-5 and the control group (with saline treatment) were performed (Table 8). Volume of the all control group mice reached >5-fold of their initial tumor volume within 14 days. Mouse euthanized for treated group within 4 weeks of post-injection was mainly due to sudden body weight loss and not related to tumor growth. […] The difference among treatment groups was statistically significant (P=0.002) by the log-rank test compared to the untreated group. […] After 8-weeks, three mice from each treated group were used for detailed blood analysis and necropsy study. All animals underwent radiotherapy study had normal creatinine (0.3-0.4 mg/dL) and blood urea nitrogen levels. […] Additionally, a significant lowering of platelet for all three treated mice from ^177Lu-PSMA-617 compared control group and other treated groups.
Significant and concerning changes were identified in testes, and lacrimal grands primarily (FIG. 25) for all treated groups. […] Parotid glands, usually adjacent to exorbital lacrimal gland, are conspicuously spared and there were mild changes in the group treated ^177Lu-PSMA-617. […] T lymphoblastic lymphoma is accelerated by irradiation and some carcinogens, and is associated with interactions of endogenous retroviruses/retroelements in NOD/SCID mouse strains. […] The cells are large up to 25 μm, with very large nuclei (for a mouse) usually 2-3 nucleoli, and a high mitotic rate. Testis and lacrimal gland degenerative changes indicate that this animal did receive a treatment similar to other treated mice.
(§2) Antitumor efficacy studies were performed in PC3 PIP flank tumor growth delay model to evaluate the therapeutic efficacy of a single dose intravenous injection of ^177Lu-L1, ^177Lu-L3, ^177Lu-L5 and ^177Lu-PSMA-617 vs. saline. This was a head-to-head comparison study and same batch of tumor-bearing mice and radioactivity. The study was commenced 14-18 days post-inoculation of the xenografts, when all the mice had tumor volume of about ˜60-85 mm^3 (Table 8). All the living mice were monitored for 8 weeks to monitor the growth delay. Mice body weight and tumor volume were monitored every 3 days throughout the experiment. Endpoint criteria defined by the institute ACUC was weight loss≥15%, a tumor volume>1800 mm^3, active ulceration of the tumor or abnormal behavior indicating pain or unease. After 8-weeks, three mice from each group were submitted for detail necropsy and blood analysis. Mice group treated with ^177Lu-1 and ^177Lu-PSMA-617 were continued to monitor until the endpoint. These definitions were also used for Kaplan-Meier analysis. The probability of reaching 5 times the initial tumor volume was characterized using Kaplan-Meier curves, and comparison was performed using the log-rank test. The formula used for calculation of tumor volume was V=width^2×length/2. Toxicity of the ^177Lu-treatment groups after 8-weeks and in healthy CD-1 (n=3) mice treated with 111 MBq was evaluated by pathologic examination at the Johns Hopkins Pathology Core facility with serum metabolic panel, blood counts, and full necropsy including detailed histopathology of kidneys, salivary glands and lacrimal glands.

[5] = system: PSMA+ PC3 PIP tumors; assay: Radiopharmaceutical therapy in PC3 PIP flank tumor growth delay model; format: in vivo, NOD/SCID mice
Experimental: as §1
Median survival for the ^177Lu-PSMA-617 was 133 days vs. 234 days for ^177Lu-1.
The remaining treated mice survived tumor-free for 10 months and were evaluated for toxicity.
as §2

[6] = system: PSMA(+) PC3 PIP and PSMA(−) PC3 flu tumor xenografts; assay: Biodistribution of 177Lu compounds (Example 5); conditions: 3 h post-injection
[7] = 111 MBq (3 mCi), after eight weeks, n=3

SMILES: O=C(O)CC[C@H](NC(=O)N[C@@H](CCCCN(Cc1ccc(I)cc1)C(=O)CCCCNC(=O)CN1CCN(CC(=O)O)CCN(CC(=O)O)CCN(CC(=O)O)CC1)C(=O)O)C(=O)O [Ligand L2, (14S,18S)-9-(4-iodobenzyl)-2,8,16-trioxo-1-(4,7,10-tris(carboxymethyl)-1,4,7,10-tetraazacyclododecan-1-yl)-3,9,15,17-tetraazaicosane-14,18,20-tricarboxylic acid]
- Specific Cell Surface Binding [1]: 29.23 ± 0.80 % IA/10^6 cells
- specific internalization [1]: 24.96 ± 0.90 % IA/10^6 cells
- Ki [2]: 0.2 to 0.33 nM

SMILES: O=C(O)CC[C@H](NC(=O)N[C@@H](CCCCN(Cc1ccc(Br)cc1)C(=O)CCCCCNC(=O)c1ccc(CNC(=O)CN2CCN(CC(=O)O)CCN(CC(=O)O)CCN(CC(=O)O)CC2)cc1)C(=O)O)C(=O)O [Ligand L3, (14S,18S)-9-(4-Bromobenzyl)-1,8,16-trioxo-1-(4-((2-(4,7,10-tris(carboxymethyl)-1,4,7,10-tetraazacyclododecan-1-yl)acetamido)methyl)phenyl)-2,9,15,17-tetraazaicosane-14,18,20-tricarboxylic acid]
- Specific Cell Surface Binding [1]: 36.65 ± 0.50 % IA/10^6 cells
- specific internalization [1]: 22.03 ± 0.60 % IA/10^6 cells
- Ki [2]: 0.09 to 34 nM

SMILES: O=C(O)CC[C@H](NC(=O)N[C@@H](CCCCN(Cc1ccc(I)cc1)C(=O)CCCCCNC(=O)c1ccc(CNC(=O)CN2CCN(CC(=O)O)CCN(CC(=O)O)CCN(CC(=O)O)CC2)cc1)C(=O)O)C(=O)O [Ligand L4, (14S,18S)-9-(4-Iodobenzyl)-1,8,16-trioxo-1-(4-((2-(4,7,10-tris(carboxymethyl)-1,4,7,10-tetraazacyclododecan-1-yl)acetamido)methyl)phenyl)-2,9,15,17-tetraazaicosane-14,18,20-tricarboxylic acid]
- Ki [2]: 0.14 to 0.39 nM

SMILES: O=C(O)CC[C@H](NC(=O)N[C@@H](CCCCN(Cc1ccc(Br)cc1)C(=O)CCCCCCC(=O)NCCCCNC(=O)c1ccc(CNC(=O)CN2CCN(CC(=O)O)CCN(CC(=O)O)CCN(CC(=O)O)CC2)cc1)C(=O)O)C(=O)O [Ligand L5, (21S,25S)-16-(4-Bromobenzyl)-1,8,15,23-tetraoxo-1-(4-((2-(4,7,10-tris(carboxymethyl)-1,4,7,10-tetraazacyclododecan-1-yl)acetamido)methyl)phenyl)-2,7,16,22,24-pentaazaheptacosane-21,25,27-tricarboxylic acid]
- Specific Cell Surface Binding [1]: 36.65 ± 0.50 % IA/10^6 cells
- specific internalization [1]: 22.03 ± 0.60 % IA/10^6 cells
- Ki [2]: 0.46 to 0.63 nM

SMILES: O=C(O)CC[C@H](NC(=O)N[C@@H](CCCCN(Cc1ccc(I)cc1)C(=O)CCCCCCC(=O)NCCCCNC(=O)c1ccc(CNC(=O)CN2CCN(CC(=O)O)CCN(CC(=O)O)CCN(CC(=O)O)CC2)cc1)C(=O)O)C(=O)O [Ligand L6, (21S,25S)-16-(4-Iodobenzyl)-1,8,15,23-tetraoxo-1-(4-((2-(4,7,10-tris(carboxymethyl)-1,4,7,10-tetraazacyclododecan-1-yl)acetamido)methyl)phenyl)-2,7,16,22,24-pentaazaheptacosane-21,25,27-tricarboxylic acid]
- Ki [2]: 0.35 to 0.93 nM

SMILES: O=C(O)CC[C@H](NC(=O)N[C@@H](CCCCNC(=O)CCCCNC(=S)Nc1ccc(CC2CN(CC(=O)O)CCN(CC(=O)O)CCN(CC(=O)O)CCN2CC(=O)O)cc1)C(=O)O)C(=O)O (stereo partly drawn) [Ligand L7, (13S,17S)-7,15-dioxo-1-((4-((1,4,7,10-tetrakis(carboxymethyl)-1,4,7,10-tetraazacyclododecan-2-yl)methyl)phenyl)amino)-1-thioxo-2,8,14,16-tetraazanonadecane-13,17,19-tricarboxylic acid]
- Ki [2]: 0.29 to 0.81 nM

SMILES: O=C(O)CC[C@H](NC(=O)N[C@@H](CCCCN(Cc1ccc(Br)cc1)C(=O)c1ccc(CNC(=O)CN2CCN(CC(=O)O)CCN(CC(=O)O)CCN(CC(=O)O)CC2)cc1)C(=O)O)C(=O)O [Ligand L12, (((S)-5-(N-(4-Bromobenzyl)-4-((2-(4,7,10-tris(carboxymethyl)-1,4,7,10-tetraazacyclododecan-1-yl)acetamido)methyl)benzamido)-1-carboxypentyl)carbamoyl)-L-glutamic acid]
- Ki [2]: 0.22 to 4.03 nM

SMILES: O=C(O)CC[C@H](NC(=O)N[C@@H](CCCCN(Cc1ccc(Br)nc1)C(=O)CCCCNC(=O)CN1CCN(CC(=O)O)CCN(CC(=O)O)CCN(CC(=O)O)CC1)C(=O)O)C(=O)O [Ligand L13, (14S,18S)-9-((6-Bromopyridin-3-yl)methyl)-2,8,16-trioxo-1-(4,7,10-tris(carboxymethyl)-1,4,7,10-tetraazacyclododecan-1-yl)-3,9,15,17-tetraazaicosane-14,18,20-tricarboxylic acid]
- Ki [2]: 0.23 to 8.1 nM

SMILES: O=C([O-])CN1CCN(CC(=O)[O-])CCN(CC(=O)NCCCCC(=O)N(CCCC[C@H](NC(=O)N[C@@H](CCC(=O)O)C(=O)O)C(=O)O)Cc2ccc(Br)cc2)CCN(CC(=O)[O-])CC1.[Lu+3] [Lu-L1]
- fold improvement in binding affinity over L1 [2]: 3 fold

SMILES: O=C([O-])CN1CCN(CC(=O)[O-])CCN(CC(=O)NCc2ccc(C(=O)NCCCCNC(=O)CCCCCCC(=O)N(CCCC[C@H](NC(=O)N[C@@H](CCC(=O)O)C(=O)O)C(=O)O)Cc3ccc(Br)cc3)cc2)CCN(CC(=O)[O-])CC1.[177Lu+3] [^177Lu-L5]
- Cell uptake PC3 flu ([3]; 1 h): 0.2 ± 0.1 % incubated dose per 1 x 10^6 cells
- Cell uptake PC3 flu ([3]; 2 h): 0.0 ± 0.0 % incubated dose per 1 x 10^6 cells
- Cell uptake PC3 flu ([3]; 4 h): 0.1 ± 0.0 % incubated dose per 1 x 10^6 cells
- Cell uptake PC3 flu ([3]; 24 h): 0.1 ± 0.0 % incubated dose per 1 x 10^6 cells
- Cell uptake PC3 PIP ([1]; 1 h): 26.6 ± 0.6 % incubated dose per 1 x 10^6 cells
- PC3 PIP cell Int (internalization) ([1]; 1 h): 24.1 ± 0.5 % incubated dose per 1 x 10^6 cells
- Blockade PC3 PIP ([1]; 1 h, ZJ43 10 μM): 0.0 ± 0.0 % incubated dose per 1 x 10^6 cells
- total uptake within the PSMA(+) PC3 PIP cells ([1]; 1 h to 24 h): ~30 % of the incubated dose
- Cell uptake PC3 PIP ([1]; 2 h): 29.23 ± 0.8 % incubated dose per 1 x 10^6 cells
- PC3 PIP, line without name (position of cell internalization) ([1]; 2 h): 25.0 ± 0.9 % incubated dose per 1 x 10^6 cells
- Cell uptake PC3 PIP ([1]; 4 h): 34.4 ± 1.2 % incubated dose per 1 x 10^6 cells
- PC3 PIP cell int (internalization) ([1]; 4 h): 26.1 ± 1.0 % incubated dose per 1 x 10^6 cells
- Cell uptake PC3 PIP ([1]; 24 h): 49.8 ± 1.4 % incubated dose per 1 x 10^6 cells
- PC3 PIP cell int (internalization) ([1]; 24 h): 27.9 ± 0.8 % incubated dose per 1 x 10^6 cells
- Albumin [4, 7]: 3 ± 0.4 g/dL
- Blood urea nitrogen [4, 7]: 22.7 ± 3.2 mg/dL
- Hematocrit [4, 7]: 49.7 ± 2.4%
- Hemoglobin [4, 7]: 14.3 ± 1.0 g/dL
- Lymphocytes [4, 7]: 0.4 ± 0.1 K/μL
- Mean Corpuscular Value(MCV) [4, 7]: 54.1 ± 1.4 fL
- Neutrophils [4, 7]: 2.0 ± 1.8 K/μL
- Platelets [4, 7]: 1415.3 ± 88.5 K/μL
- Red blood cells [4, 7]: 9.2 ± 0.7 M/μL
- Total protein [4, 7]: 5.9 ± 0.6 g/dL
- White blood cells [4, 7]: 2.9 ± 1.8 K/μL
- H&E pathology of testis ([4]; 111 MBq, after 8 weeks): most significant changes in testis
- Median survival After 8 weeks post-treatment ([5]; 111 MBq): Not reached
- Tumors above stated relative tumor growth after week 8 post-treatment (Vt/V0) ([5]; 111 MBq): one tumor > 5
- Mouse death (number of mice) ([5]; 111 MBq, up to week 8 post-treatment): Mouse death 3
- Average final body weight ([5]; single i.v. dose 111 MBq (3 mCi)): 27.5 ± 1.9 gram
- PSMA(+) PC3 PIP tumor uptake [6]: 56.3±18.3 % ID/g
